The numbers were not newly measured in PMC11376147 (Chemical Science, 2024), which cites them from elsewhere.

The target of this data set is T1, DC-SIGN ECD (Homo sapiens, UniProt Q9NNX6).
T1 sequence (Q9NNX6 66-404): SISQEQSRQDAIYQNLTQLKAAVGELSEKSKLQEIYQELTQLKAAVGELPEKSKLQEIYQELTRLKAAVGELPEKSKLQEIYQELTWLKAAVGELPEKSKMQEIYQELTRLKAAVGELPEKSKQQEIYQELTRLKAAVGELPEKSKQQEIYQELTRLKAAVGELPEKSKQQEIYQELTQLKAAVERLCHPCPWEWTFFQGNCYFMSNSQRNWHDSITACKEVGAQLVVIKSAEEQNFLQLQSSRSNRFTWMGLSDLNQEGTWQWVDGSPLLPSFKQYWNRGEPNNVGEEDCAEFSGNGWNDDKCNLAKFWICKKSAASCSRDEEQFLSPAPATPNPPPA
The conditions noted are these: read-out: IC50 DC-SIGN; SPR inhibition, Spike surface; cited from earlier work.

With `OC[C@H]1OC(O)[C@@H](O)[C@@H](O)[C@@H]1O` (stereo partly shown) [mannose], the 50% inhibitory concentration (IC50) was 3 mM.

As usually defined, the IC50 is the concentration needed to halve the response being measured.
